In patent US12065434B2, “Metabolites of GLP1R agonists” (Pfizer Inc., priority 2020, dated 2024):

Assays:
[1] = Metabolite profiling of pooled human plasma after repeat oral dosing of Compound 1 (HPLC/UV/MS); conditions: for Plasma Extracts: Compound 1 120 mg oral BID, Day 28, HPLC/UV/MS; for observed as major or minor metabolite in human plasma: Compound 1 120 mg BID, Day 28
[2] = system: rat hepatocytes; assay: In vitro metabolism of Compound 2 in rat cryopreserved hepatocytes; type: in vitro ADME; design: key to Relative abundance of metabolite of Compound 2, Rat: ND Not detected.; trace: Trace: observed by HPLC/MS measurements only.; + Minor as assessed by HPLC/UV measurements; ++ moderate as assessed by HPLC/UV measurements; +++ major as assessed by HPLC/UV measurements.; * m/z 593 and m/z 505 co-eluted in rabbit hepatocytes.; ** m/z 591 c and m/z 593 were merged in human hepatocytes and Hepatopack.; *** m/z 607 and m/z 751 b were merged in rabbit hepatocytes; conditions: for metabolite of Compound 2 observed in rat hepatocyte incubations: 10 μM Compound 2, 7.5×10^5 cells/mL, 1 and 4 hrs composite; for Relative abundance of metabolite of Compound 2, Rat: rat cryopreserved hepatocytes, HPLC/UV/MS
Description: (§1) Male CD-1 mouse hepatocytes (lot YHL), male Wistar-Han rat hepatocytes (Celsius; product number: M000065; lot: SLA), female New Zealand rabbit hepatocytes (lot 1510147), male cryopreserved cynomolgus monkey hepatocytes (Celsius; product number: M00305; lot: DNB) and mixed-gender cryopreserved human hepatocytes (Bioreclamation; product number: S01988; lot: DCM) were obtained for the hepatocyte in-vitro assessments.
(§2) At time 0 hrs 550 μL aliquots were removed from incubations and quenched with 5 volumes of ACN containing 0.1% formic acid. At 1 and 4 hrs, 275 μL aliquots were removed and quenched as above; these were combined in the same tube to prepare a composite sample. For all hepatocyte experiments, samples were processed by centrifugation at 1900×g for 5 minutes, and then the supernatant was transferred to clean glass tubes and evaporated to dryness under a stream of N2 using a Turbovap at 37° C. Sample residues were reconstituted in mobile phase prior to analysis by HPLC/UV/MS^n.
(§3) Samples were analyzed by HPLC/UV/MS^n using a Thermo Orbitrap Elite mass spectrometer in conjunction with a Thermo Open Accela UHPLC system. A 3.0×150 mm, 2.5 μm Acquity CSH C18 HPLC column (Waters) was heated to 45° C. for separation of analytes. The mobile phase was a gradient of A): water containing 0.1% formic acid, and B): acetonitrile. The flow rate was 450 μL/min, and the following gradient program was utilized: […]
(§4) UV absorbance was monitored with a photo-diode array detector from 220-450 nm. The mass spectrometer was operated in positive-ion mode with a HESI ion source at a potential of 3.0 kV, and capillary and source heater temperatures of 380 and 300° C., respectively. Sheath, auxiliary, and sweep gas flows were set to 45, 10, and 2 units, respectively. Full scan mass spectra were acquired over the range 120-1200 m/z at a resolving power of 30,000 (specified at m/z 400). Data-dependent MS^n spectra were acquired in an automated fashion at 15,000 resolving power using CID and HCD fragmentation with normalized collision energy settings of 28 and 65 V, respectively.
(§5) Metabolites were characterized by comparisons of mass spectral fragmentation patterns with that of a Compound 2 standard. All HPLC/UV/MS^n data were processed using Xcalibur v. 2.2, and integrated UV peak areas were subjected to weighted UV binning procedures utilizing an Excel template.

[3] = system: human hepatocytes; assay: In vitro metabolism of Compound 2 in human cryopreserved hepatocytes; type: in vitro ADME; design: key to Relative abundance of metabolite of Compound 2, Human: ND Not detected.; trace: Trace: observed by HPLC/MS measurements only.; + Minor as assessed by HPLC/UV measurements; ++ moderate as assessed by HPLC/UV measurements; +++ major as assessed by HPLC/UV measurements.; * m/z 593 and m/z 505 co-eluted in rabbit hepatocytes.; ** m/z 591 c and m/z 593 were merged in human hepatocytes and Hepatopack.; *** m/z 607 and m/z 751 b were merged in rabbit hepatocytes; conditions: for metabolite of Compound 2 observed in human hepatocyte incubations: 10 μM Compound 2, 7.5×10^5 cells/mL, 1 and 4 hrs composite
Description: as §1, §2, §3, §4, §5

[4] = system: monkey hepatocytes; assay: In vitro metabolism of Compound 2 in monkey cryopreserved hepatocytes; type: in vitro ADME, cynomolgus monkey; design: key to Relative abundance of metabolite of Compound 2, Monkey: ND Not detected.; trace: Trace: observed by HPLC/MS measurements only.; + Minor as assessed by HPLC/UV measurements; ++ moderate as assessed by HPLC/UV measurements; +++ major as assessed by HPLC/UV measurements.; * m/z 593 and m/z 505 co-eluted in rabbit hepatocytes.; ** m/z 591 c and m/z 593 were merged in human hepatocytes and Hepatopack.; *** m/z 607 and m/z 751 b were merged in rabbit hepatocytes; conditions: for metabolite of Compound 2 observed in monkey hepatocyte incubations: 10 μM Compound 2, 7.5×10^5 cells/mL, 1 and 4 hrs composite
Description: as §1, §2, §3, §4, §5

[5] = system: rabbit hepatocytes; assay: In vitro metabolism of Compound 2 in rabbit cryopreserved hepatocytes; type: in vitro ADME; design: key to Relative abundance of metabolite of Compound 2, Rabbit: ND Not detected.; trace: Trace: observed by HPLC/MS measurements only.; + Minor as assessed by HPLC/UV measurements; ++ moderate as assessed by HPLC/UV measurements; +++ major as assessed by HPLC/UV measurements.; * m/z 593 and m/z 505 co-eluted in rabbit hepatocytes.; ** m/z 591 c and m/z 593 were merged in human hepatocytes and Hepatopack.; *** m/z 607 and m/z 751 b were merged in rabbit hepatocytes; conditions: for metabolite of Compound 2 observed in rabbit hepatocyte incubations: 10 μM Compound 2, 7.5×10^5 cells/mL, 1 and 4 hrs composite
Description: as §1, §2, §3, §4, §5

[6] = system: mouse hepatocytes; assay: In vitro metabolism of Compound 2 in mouse cryopreserved hepatocytes; type: in vitro ADME; design: key to Relative abundance of metabolite of Compound 2, Mouse: ND Not detected.; trace: Trace: observed by HPLC/MS measurements only.; + Minor as assessed by HPLC/UV measurements; ++ moderate as assessed by HPLC/UV measurements; +++ major as assessed by HPLC/UV measurements.; * m/z 593 and m/z 505 co-eluted in rabbit hepatocytes.; ** m/z 591 c and m/z 593 were merged in human hepatocytes and Hepatopack.; *** m/z 607 and m/z 751 b were merged in rabbit hepatocytes; conditions: for metabolite of Compound 2 observed in mouse hepatocyte incubations: 10 μM Compound 2, 7.5×10^5 cells/mL, 1 and 4 hrs composite
Description: as §1, §2, §3, §4, §5

Row | Compound | Plasma Extracts [1] | observed as major or minor metabolite in human plasma [1] | metabolite of Compound 2 observed in rat hepatocyte incubations [2] | metabolite of Compound 2 observed in human hepatocyte incubations [3] | metabolite of Compound 2 observed in monkey hepatocyte incubations [4] | metabolite of Compound 2 observed in rabbit hepatocyte incubations [5] | metabolite of Compound 2 observed in mouse hepatocyte incubations [6] | further results
1 | N#Cc1ccc(COc2cccc(C3(O)CCN(Cc4nc5ccc(C(=O)O)cc5n4C[C@@H]4CCO4)CC3)n2)c(F)c1 [Compound M4, (S)-2-((4-(6-((4-cyano-2-fluorobenzyl)oxy)pyridin-2-yl)-4-hydroxypiperidin-1-yl)methyl)-1-(oxetan-2-ylmethyl)-1H-benzo[d]imidazole-6-carboxylic acid] | + |  |  |  |  |  |  | 
2 | O=C(O)c1ccc2nc(CN3CCC(c4cccc(O)c4O)CC3)n(C[C@@H]3CCO3)c2c1 [Metabolite 438, (S)-2-((4-(2,3-dihydroxyphenyl)piperidin-1-yl)methyl)-1-(oxetan-2-ylmethyl)-1H-benzo[d]imidazole-6-carboxylic acid] |  |  | trace metabolite | trace metabolite | trace metabolite |  |  | Relative abundance of metabolite of Compound 2, Rat [2]: trace; Relative abundance of metabolite of Compound 2, Human ([3]; human cryopreserved hepatocytes, HPLC/UV/MS): trace; Relative abundance of metabolite of Compound 2, Monkey ([4]; monkey cryopreserved hepatocytes, HPLC/UV/MS): trace
3 | C[C@]1(c2ccc(Cl)cn2)Oc2cccc(C3CCN(Cc4nc5ccc(C(=O)O)cc5[nH]4)CC3)c2O1 [Metabolite 505, (S)-2-((4-(2-(5-chloropyridin-2-yl)-2-methylbenzo[d][1,3]dioxol-4-yl)piperidin-1-yl)methyl)-1H-benzo[d]imidazole-6-carboxylic acid] |  |  | observed |  |  | observed | observed | Relative abundance of metabolite of Compound 2, Rat [2]: trace; Relative abundance of metabolite of Compound 2, Rabbit ([5]; rabbit cryopreserved hepatocytes, HPLC/UV/MS): *; Relative abundance of metabolite of Compound 2, Mouse ([6]; mouse cryopreserved hepatocytes, HPLC/UV/MS): trace
4 | C[C@]1(c2ccc(Cl)cn2)Oc2cccc(C3=CCN(Cc4nc5ccc(C(=O)O)cc5n4C[C@@H]4CCO4)CC3)c2O1 [Metabolite 573a] |  |  | low-level metabolite | low-level metabolite | low-level metabolite | low-level metabolite | low-level metabolite | 
5 | C[C@]1(c2ccc(Cl)cn2)Oc2cccc(C3CC[N+]([O-])(Cc4nc5ccc(C(=O)O)cc5n4C[C@@H]4CCO4)CC3)c2O1 (stereo partly drawn) [Metabolite 591d] |  |  | observed in all hepatocyte incubations | observed in all hepatocyte incubations | observed in all hepatocyte incubations | observed in all hepatocyte incubations | observed in all hepatocyte incubations | 

Further lines, with some results ahead:

Row | Plasma Extracts [1] | observed as major or minor metabolite in human plasma [1] | metabolite of Compound 2 observed in rat hepatocyte incubations [2] | metabolite of Compound 2 observed in human hepatocyte incubations [3] | metabolite of Compound 2 observed in monkey hepatocyte incubations [4] | metabolite of Compound 2 observed in rabbit hepatocyte incubations [5] | metabolite of Compound 2 observed in mouse hepatocyte incubations [6] | Compound | further results
6 | +++ |  |  |  |  |  |  | N#Cc1ccc(COc2cccc(C3CCN(Cc4nc5ccc(C(=O)O)cc5n4C[C@@H]4CCO4)CC3)n2)c(F)c1 [Compound 1, 2-[(4-{6-[(4-Cyano-2-fluorobenzyl)oxy]pyridin-2-yl}piperidin-1-yl)methyl]-1-[(2S)-oxetan-2-ylmethyl]-1H-benzimidazole-6-carboxylic acid] | 
7 | + | minor metabolite |  |  |  |  |  | N#Cc1ccc(COc2cccc(C(CCO)CCNCc3nc4ccc(C(=O)O)cc4n3C[C@@H]3CCO3)n2)c(F)c1 (stereo partly drawn) [Compound 574a, 2-(((3-(6-((4-cyano-2-fluorobenzyl)oxy)pyridin-2-yl)-5-hydroxypentyl)amino)methyl)-1-(((S)-oxetan-2-yl)methyl)-1H-benzo[d]imidazole-6-carboxylic acid] | 
8 | + | minor metabolite |  |  |  |  |  | N#Cc1ccc(COc2cccc(C3CCN(Cc4nc5ccc(C(=O)O)cc5n4CC(O)CCO)CC3)n2)c(F)c1 (stereo not drawn) [Compound 574b, 2-((4-(6-((4-cyano-2-fluorobenzyl)oxy)pyridin-2-yl)piperidin-1-yl)methyl)-1-(2,4-dihydroxybutyl)-1H-benzo[d]imidazole-6-carboxylic acid] | 
9 | + | minor metabolite |  |  |  |  |  | N#Cc1ccc(COc2cccc(C3CCNCC3)n2)c(F)c1 [Compound M3, 3-fluoro-4-(((6-(piperidin-4-yl)pyridin-2-yl)oxy)methyl)benzonitrile] | 
